Drawing on ChEMBL document CHEMBL1130927, “Novel imidazole derivatives with subtype-selective antimuscarinic activity (2)” (Bioorg Med Chem Lett, 1998), this text covers Kb and Ratio for 21 compounds.

Experiment [1] concerns the target Muscarinic acetylcholine receptor M3 (Cavia porcellus) (UniProt Q8VH26). Put plainly: Antimuscarinic activity against M3 receptor of guinea pig ileum. The class given is tissue-based.
The target in experiment [2] is Muscarinic acetylcholine receptor M2 (Cavia porcellus). The experiment in a line: Antimuscarinic activity against M2 receptor of guinea pig atrium. To be noted: Cardiac atrium.
The test system of experiment [3] is Muscarinic acetylcholine receptors; M2 & M3. Put plainly: Selectivity ratio was calculated between Kb values at M2 and M3 muscarinic receptors. The format is protein assay. To be noted: Cavia porcellus.

Chain of Muscarinic acetylcholine receptor M3 (Cavia porcellus) (Q8VH26 1-587): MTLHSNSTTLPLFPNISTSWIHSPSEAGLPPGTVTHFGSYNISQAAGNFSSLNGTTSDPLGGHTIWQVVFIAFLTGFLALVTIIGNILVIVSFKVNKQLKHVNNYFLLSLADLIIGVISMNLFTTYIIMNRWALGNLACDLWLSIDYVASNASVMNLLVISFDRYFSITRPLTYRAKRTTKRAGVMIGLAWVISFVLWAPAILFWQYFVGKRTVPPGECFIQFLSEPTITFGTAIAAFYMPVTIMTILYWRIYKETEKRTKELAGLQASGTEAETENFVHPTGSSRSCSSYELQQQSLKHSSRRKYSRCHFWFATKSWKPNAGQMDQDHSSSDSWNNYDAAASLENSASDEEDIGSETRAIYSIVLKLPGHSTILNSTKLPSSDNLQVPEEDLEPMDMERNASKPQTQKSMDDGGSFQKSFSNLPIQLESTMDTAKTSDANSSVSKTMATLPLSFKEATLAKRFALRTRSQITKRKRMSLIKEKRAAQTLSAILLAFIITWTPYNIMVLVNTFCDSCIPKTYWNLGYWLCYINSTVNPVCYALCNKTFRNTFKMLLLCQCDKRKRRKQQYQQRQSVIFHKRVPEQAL

On to `Cc1nccn1CCC(C(N)=O)(c1ccccc1)C(C)C` (stereo unspecified), for which the Kb in experiment [1] amounted to 394 nM.
With `Cc1nccn1CCC(C#N)(c1ccccc1)c1ccccc1`, the Kb was 15.5 nM in experiment [2] and 10.4 nM in experiment [1]. For the same compound, in experiment [3], the Ratio is 1.49.
As to `Cc1ccc(C(CCn2ccnc2C)(C(N)=O)c2ccccc2)cc1` (stereo unspecified), the Kb was 743 nM in experiment [2] and 24.6 nM in experiment [1]. Also, in experiment [3], the Ratio was 30.3.
For the compound `Cc1nccn1CCC(C(N)=O)(c1ccccc1)c1ccccc1`, the Ratio in experiment [3] is 13.
In the case of `Cc1nccn1CCCCCC(C(N)=O)(c1ccccc1)c1ccccc1`, the Kb came out at 710 nM in experiment [2] and 71.3 nM in experiment [1]. Besides, in experiment [3], the Ratio was 9.96.
With `Cc1nccn1CCC(O)(c1ccccc1)c1ccccc1`, the Kb in experiment [2] was 50.1 nM; in experiment [1], 16.7 nM. In addition, in experiment [3], the Ratio is 3.
On to `Cc1nccn1CCC(C(N)=O)C1c2ccccc2Oc2ccccc21` (stereo unspecified), for which the Kb in experiment [1] is over 300 nM.
For the compound `CNC(=O)C(CCn1ccnc1C)(c1ccccc1)c1ccccc1`, the Kb in experiment [2] was 5870 nM; in experiment [1], 5150 nM. Also, the Ratio in experiment [3] was 1.14.
Take `Cc1nccn1C(C)CC(C(N)=O)(c1ccccc1)c1ccccc1` (stereo unspecified): the Kb in experiment [2] was found to be 174 nM; in experiment [1] it was 16.9 nM. Further, the Ratio in experiment [3] was 10.3.
For the compound `Cc1nccn1CCCCC(C(N)=O)(c1ccccc1)c1ccccc1`, the Kb in experiment [2] was 148 nM; in experiment [1] it was 43.7 nM. The Ratio in experiment [3] is 3.39.
For `Cc1nccn1CCC(C(N)=O)C1c2ccccc2CCc2ccccc21` (stereo unspecified), the Kb in experiment [1] was found to be 2140 nM.
For the compound `Cc1nccn1CCCC(C(N)=O)(c1ccccc1)c1ccccc1`, the figures for the Kb in experiment [2] and in experiment [1] were 20.1 nM and 1.14 nM, respectively. Moreover, the Ratio in experiment [3] is 17.6.
For `Cc1nccn1CCC(C(=O)N(C)C)(c1ccccc1)c1ccccc1` the same measures were 478 nM, 258 nM and 1.85.
On to `Cc1nccn1CCC(C)(C(N)=O)c1ccccc1` (stereo unspecified), for which the Kb in experiment [1] worked out at 1830 nM.
Regarding `Cc1nccn1CCC(C(N)=O)(c1ccccc1)C1CCCCC1` (stereo unspecified), the Kb in experiment [2] was determined as 603 nM; in experiment [1], 19 nM. In experiment [3], the Ratio was 31.7.
`COC(=O)C(CCn1ccnc1C)(c1ccccc1)c1ccccc1` gave a Kb in experiment [1] of over 1000 nM.
Turning to `Cc1nccn1CCC(C(N)=O)(c1ccccc1)c1ccccn1` (stereo unspecified), the results for the Kb in experiment [2] and in experiment [1] were 50.1 nM and 2.86 nM, respectively. Moreover, the Ratio in experiment [3] is 17.5.
Turning to `Cc1nccn1CCC(CO)(c1ccccc1)c1ccccc1`, the Kb came to 83.8 nM in experiment [2] and 25.4 nM in experiment [1]. In addition, in experiment [3], the Ratio was 3.3.
For `Cc1nccn1CC(C)C(C(N)=O)(c1ccccc1)c1ccccc1` (stereo unspecified) the same measures were 45.1 nM, 2.89 nM and 15.6.
For `Cc1nccn1CCC(C(N)=O)(c1ccc(F)cc1)c1ccc(F)cc1` the same measures were 161 nM, 9.85 nM and 16.3.
`Cc1nccn1CCC(C(=O)O)(c1ccccc1)c1ccccc1`: the results for the Kb in experiment [2] and in experiment [1] were 82.7 nM and 6.95 nM, respectively. The Ratio in experiment [3] was 11.9.
